PMC6585632 (Clinical Pharmacology in Drug Development, 2018)
Values joined by “and” are separate entries in the source; they are usually repeats but may differ in a detail not shown here. Equal values may be shown once. “Also recorded” adds a separate entry of the source. Read-outs that look alike come from different tables or passages of the source. Marks after values point to notes of the source that are not given here.

Tests used:
[1] = Safety: treatment-emergent adverse events; type: in vivo, human
[2] = Effect of a high-fat meal on single-dose pharmacokinetics; type: in vivo, human; details: for AUC / Cmax / half-life / Tmax: human, plasma, oral; for AUC: AUC0‐24h
[3] = incubation with human liver microsomes; ref Clovis Oncology, Inc., data on file; cited from earlier work
[4] = type: in vivo, human; details: for Steady state reached by: plasma trough concentrations; for Arithmetic Mean CLss/F (CV%): day 15 steady state
[5] = system: Recombinant human cytochrome P450 (CYP) 2D6; details: recombinant human CYP2D6; ref Clovis Oncology, Inc., data on file; cited from earlier work
[6] = normal metabolizers vs hyperinducers; cited from earlier work
[7] = Dose proportionality at steady state; type: in vivo, human; details: 40–500 mg QD and 240–840 mg BID
human hepatocytes = details: incubation with human hepatocytes; ref Clovis Oncology, Inc., data on file; cited from earlier work
[8] = Steady-state pharmacokinetics in food effect cohorts; type: in vivo, human; details: for Tmax / Cmax / AUC / half-life: human, plasma, oral; for Cmax / AUC / half-life: cycle 1 day 15 steady state; for AUC: AUC0‐t
[9] = Part 3, 600 mg BID (n = 26), Grade 5
[10] = Part 3, single dose 600 mg, fasted
[11] = Part 3, single dose 600 mg, fed
[12] = Part 3, single dose 600 mg, high‐fat meal
[13] = 40 mg, arithmetic mean, Part 1, single dose 40 mg, cycle 1 day –7 fasted, n 3
[14] = 40 mg, median, Part 1, single dose 40 mg, cycle 1 day –7 fasted, n 3
[15] = 40 mg, median, Part 1, single dose 40 mg, cycle 1 day 1 fed (high-fat meal), n 3

For `CNCc1ccc(-c2[nH]c3cc(F)cc4c3c2CCNC4=O)cc1` [rucaparib], the “deaths due to disease progression” value ([1]; Part 1) was “Three”, the “treatment‐related deaths” value ([1]; Part 1) was “No treatment‐related deaths” and the “treatment‐related deaths” value ([1]; Part 3, 600 mg BID) was “No treatment‐related deaths”. The Dyspnea [1, 9] was 1 (3.8%) n (%), the Pulmonary embolism [1, 9] was 1 (3.8%) n (%) and the “effect of food (high‐fat meal) on rucaparib pharmacokinetics” value ([2]; Part 1, single dose of 40 mg (n = 3) or 300 mg (n = 6)) was “No effect of food; also recorded: Minimal food effect”. The “median tmax delay by a high‐fat meal” value ([2]; Part 3, single dose 600 mg) was 2.5 h, the “intersubject variability (CV%) of the geometric mean AUC0‐24h” value [2, 10] was 84.6% and the “intersubject variability (CV%) of the geometric mean Cmax” value [2, 10] was 87.5%. The “intersubject variability (CV%) of the geometric mean AUC0‐24h” value [2, 11] was 86.8%, the “intersubject variability (CV%) of the geometric mean Cmax” value [2, 11] was 82.8% and the “fed‐to‐fasted geometric mean ratio (90%CI) for AUC0‐24h” value [2, 12] was 138%. For the same molecule, the “fed‐to‐fasted geometric mean ratio (90%CI) for Cmax” value [2, 12] was 120%, the AUC ([2]; 40 mg, arithmetic mean, Part 1, single dose 40 mg, cycle 1 day 1 fed (high-fat meal), n 2) was 794 ng·h/mL and the AUC [2, 13] was 741 ng·h/mL. For the same molecule, the AUC ([2]; 40 mg, median, Part 1, single dose 40 mg, cycle 1 day 1 fed (high-fat meal), n 2) was 794 ng·h/mL, the AUC [2, 14] was 468 ng·h/mL and the Cmax ([2]; 40 mg, arithmetic mean, Part 1, single dose 40 mg, cycle 1 day 1 fed (high-fat meal), n 3) was 64.8 ng/mL. For the same molecule, the Cmax [2, 13] was 77.9 ng/mL, the Cmax [2, 15] was 71.1 ng/mL and the Cmax [2, 14] was 57.6 ng/mL. The half-life ([2]; 40 mg, t1/2, arithmetic mean, Part 1, single dose 40 mg, cycle 1 day 1 fed (high-fat meal), n 3) was 12.6 h, the half-life ([2]; 40 mg, t1/2, arithmetic mean, Part 1, single dose 40 mg, cycle 1 day –7 fasted, n 3) was 10.6 h and the half-life ([2]; 40 mg, t1/2, median, Part 1, single dose 40 mg, cycle 1 day 1 fed (high-fat meal), n 3) was 12.7 h. It also gave a half-life ([2]; 40 mg, t1/2, median, Part 1, single dose 40 mg, cycle 1 day –7 fasted, n 3) of 8.16 h, a Tmax [2, 15] of 2.55 h and a Tmax [2, 14] of 4 h. For the same molecule, the AUC ([2]; 300 mg, arithmetic mean, Part 1, single dose 300 mg, cycle 1 day 1 fed (high-fat meal), n 5) was 6890 ng·h/mL, the metabolic turnover rate [3] was “slow metabolic turnover rates” and the “steady‐state accumulation ratio (Rac_AUC0‐12h), range over cohorts” value ([4]; BID dosing 240‐840 mg) was 1.47 to 5.44. For the same molecule, the “Estimated mean CLss/F, range over cohorts” value ([4]; BID dosing schedule) was 26.2 to 58.6 L/h, the “Steady state reached by” value ([4]; BID dosing schedule) was at most 8 cycle 1 day and the “Arithmetic Mean CLss/F (CV%)” value ([4]; Part 1, 40 mg QD oral) was 26.7 (59) L/h. For the same molecule, the “Arithmetic Mean CLss/F (CV%)” value ([4]; Part 1, 80 mg QD oral) was 47.5 (23) L/h, the “Arithmetic Mean CLss/F (CV%)” value ([4]; Part 1, 160 mg QD oral, n = 3) was 41.6 (29) ^b L/h and the “Arithmetic Mean CLss/F (CV%)” value ([4]; Part 1, 240 mg BID oral, n = 2) was 27.3 ^a L/h. For the same molecule, the “Arithmetic Mean CLss/F (CV%)” value ([4]; Part 1, 300 mg QD oral) was 46.7 (63) L/h, the “Arithmetic Mean CLss/F (CV%)” value ([4]; Part 1, 360 mg BID oral, n = 2) was 40.4 ^a L/h and the “Arithmetic Mean CLss/F (CV%)” value ([4]; Part 1, 480 mg BID oral, n = 6) was 26.2 (63) ^d L/h. For the same molecule, the “Arithmetic Mean CLss/F (CV%)” value ([4]; Part 1, 500 mg QD oral) was 27.8 (35) L/h, the “Arithmetic Mean CLss/F (CV%)” value ([4]; Part 1, 600 mg BID oral, n = 4) was 58.6 (123) ^g L/h and the “Arithmetic Mean CLss/F (CV%)” value ([4]; Part 1, 840 mg BID oral, n = 1) was 29 ^c L/h. For the same molecule, the “Rac_Cmax at steady state, range over cohorts” value ([4]; Part 1 BID cohorts) was 2.6 to 4.9, the “Rac_Cmax at steady state, range over cohorts” value ([4]; Part 1 QD cohorts) was 1.06 to 1.8 and the “steady‐state accumulation ratio (Rac_AUC0‐24h), range over cohorts” value ([4]; QD dosing 40‐500 mg) was 1.60 to 2.33 and 1.6 to 2.33. The “Estimated mean CLss/F, range over cohorts” value ([4]; QD dosing schedule) was 26.7 to 47.5 L/h, the “Steady state reached by” value ([4]; QD dosing schedule) was at most 8 cycle 1 day and the “CLss as share of the normal liver blood flow rate (1450 mL/min)” value ([4]; at tested oral dose levels) was at most 24%. The “CLss, estimated from CLss/F and oral bioavailability of 36%” value ([4]; at tested oral dose levels) was at most 350 mL/min, the Cmax ([4]; human, plasma, oral, 500 mg, mean Cmax, range over cohorts, Part 1 QD cohorts 40‐500 mg, cycle 1 day 1 single dose) was 114 to 949 ng/mL and the Tmax ([4]; human, plasma, oral, Median tmax, range over cohorts, Part 1 QD cohorts) was 1.5 to 4 h. For the same molecule, the Tmax ([4]; human, plasma, oral, cohort median tmax, range, across all doses and tablet strengths tested (Parts 1 and 3)) was 1.5 to 6 h, the Tmax ([4]; human, plasma, po, 360 mg, Median tmax (range), Part 1, 360 mg BID oral, day 1) was 3.23 h and the “metabolism by recombinant enzyme” value [5] was “able to metabolize rucaparib”. The “effect of CYP1A2 polymorphisms on pharmacokinetics” value [6] was “no apparent effect”, the “dose proportionality of plasma exposure” value [7] was “approximately dose proportional” and the metabolic turnover rate (human hepatocytes) was “slow metabolic turnover rates”. For the same molecule, the “Mean (CV%) steady‐state CLss/F” value ([8]; continuous 600 mg BID, Part 3, CV 45%) was 44.2 L/h, the Tmax ([8]; 40 mg) was 4 h and the Cmax ([8]; 40 mg, arithmetic mean, Part 1 food effect cohort, 40 mg QD, n 3) was 129 ng/mL. For the same molecule, the Cmax ([8]; 40 mg, median, Part 1 food effect cohort, 40 mg QD, n 3) was 103 ng/mL, the Tmax ([8]; 300 mg) was 2.47 h and the AUC ([8]; 300 mg, arithmetic mean, Part 1 food effect cohort, 300 mg QD, t = 24 hours, n 3) was 13300 ng·h/mL. The AUC ([8]; 300 mg, median, Part 1 food effect cohort, 300 mg QD, t = 24 hours, n 3) was 5220 ng·h/mL, the Cmax ([8]; 300 mg, arithmetic mean, Part 1 food effect cohort, 300 mg QD, n 5) was 727 ng/mL and the Cmax ([8]; 300 mg, median, Part 1 food effect cohort, 300 mg QD, n 5) was 444 ng/mL. For the same molecule, the half-life ([8]; 300 mg, t1/2, arithmetic mean, Part 1 food effect cohort, 300 mg QD, n 3) was 20 h, the half-life ([8]; 300 mg, t1/2, median, Part 1 food effect cohort, 300 mg QD, n 3) was 27.5 h and the Tmax ([8]; 600 mg) was 1.92 h. The AUC ([8]; 600 mg, arithmetic mean, Part 3, 600 mg BID, t = 10 hours, n 18) was 15800 ng·h/mL, the AUC ([8]; 600 mg, median, Part 3, 600 mg BID, t = 10 hours, n 18) was 12900 ng·h/mL and the Cmax ([8]; 600 mg, arithmetic mean, Part 3, 600 mg BID, n 18) was 1940 ng/mL. For the same molecule, the Cmax ([8]; 600 mg, median, Part 3, 600 mg BID, n 18) was 1480 ng/mL.
